Reference: patent publication US9902725B2, “Heterocyclic derivatives as RORgamma modulators” (GENFIT, priority 2014, dated 2018)
Values belong to the molecule of their own block, whether it stands above or below them.

Columns and labels:
[1] = Microsomal stability, mouse microsomes (CEREP); assay type: in vitro ADME; conditions: 0.1 μM, 0.1 mg/mL microsomal protein
Method: (§1) All the assays were conducted at CEREP (CEREP, France and USA). Metabolic compound stability was tested in human (CEREP, Ref 607) and mouse (CEREP, Ref: 806) microsomes. Inhibition of human drug-metabolizing cytochromes P450 was tested on the five most commonly responsible enzymes of metabolism of xenobiotics, CYP1A2 (CEREP, Ref 389), CYP2C9 (CEREP, Ref 412), CYP2C19 (CEREP, Ref 390), CYP2D6 (CEREP, Ref 1338) and CYP3A4 (CEREP, Ref 391).
(§2) Briefly, the standard conditions for CEREP's stability assays include incubation of test compound at 0.1 μM with human or mouse microsomes for 60 minutes in duplicate. The protein concentration of microsomes is 0.1 mg/mL. The parent compound is detected by HPLC-MS/MS analysis. The quantity of the parent compound that remains intact upon 60 minutes of microsome exposure (% remaining) is calculated by comparing the peak area of the parent compound at 60 minutes of exposure to the time zero.

CYP2C19 = CYP2C19 (Homo sapiens, UniProt P33261); assay: CYP inhibition CYP2C19 (CEREP); assay type: in vitro ADME; conditions: single concentration (typically 10 μM)
Method: as §1
(§3) Briefly, CEREP's CYP inhibition assay uses traditional probe substrates, which are specific to individual CYP isoforms. 3-cyano-7-ethoxycoumarin is mainly catalyzed by CYP1A2 and CYP2C19, 3-[2-(N,N-diethyl-N-methylammonium)ethyl]-7-methoxy-4-methylcoumarin for CYP2C9 and CYP2D6 and finally, 7-benzyloxy-4-trifluoromethylcoumarin is pathway catalyzed predominantly by CYP3A4. The inhibition assays were performed with human recombinant CYP isoforms preparations. HPLC MS/MS methods are used to detect metabolites in these assays. Compounds were tested at single concentrations (typically 10 μM) and data were expressed as percent of control inhibition.

CYP2C9 = CYP2C9 (Homo sapiens, UniProt P11712); assay: CYP inhibition CYP2C9 (CEREP); assay type: in vitro ADME; conditions: single concentration (typically 10 μM)
Method: as §1, §3

CYP2D6 = CYP2D6 (Homo sapiens, UniProt P10635); assay: CYP inhibition CYP2D6 (CEREP); assay type: in vitro ADME; conditions: single concentration (typically 10 μM)
Method: as §1, §3

CYP1A2 = biological target: T1, CYP1A2 (Homo sapiens, UniProt P05177); assay: CYP inhibition CYP1A2 (CEREP); assay type: in vitro ADME; conditions: human recombinant CYP, single concentration (typically 10 μM)
T1 sequence (P05177 1-516): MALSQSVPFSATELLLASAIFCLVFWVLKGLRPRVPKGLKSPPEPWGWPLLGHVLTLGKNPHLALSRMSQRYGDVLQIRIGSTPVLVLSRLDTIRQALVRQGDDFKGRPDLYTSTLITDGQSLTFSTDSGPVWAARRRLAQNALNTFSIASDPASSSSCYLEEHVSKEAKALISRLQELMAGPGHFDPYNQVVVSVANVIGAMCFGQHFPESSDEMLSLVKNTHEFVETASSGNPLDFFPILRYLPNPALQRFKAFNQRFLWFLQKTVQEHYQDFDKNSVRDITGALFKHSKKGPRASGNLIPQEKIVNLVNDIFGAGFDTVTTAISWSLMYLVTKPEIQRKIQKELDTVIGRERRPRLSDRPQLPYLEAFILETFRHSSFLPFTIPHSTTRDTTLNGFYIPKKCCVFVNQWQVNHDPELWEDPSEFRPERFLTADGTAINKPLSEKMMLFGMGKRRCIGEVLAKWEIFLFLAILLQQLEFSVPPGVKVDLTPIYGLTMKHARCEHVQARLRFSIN
Method: as §1, §3

CYP3A4 = CYP3A4 (Homo sapiens, UniProt P08684); assay: CYP inhibition CYP3A4 (CEREP); assay type: in vitro ADME; conditions: single concentration (typically 10 μM)
Method: as §1, §3

[2] = Microsomal stability, human microsomes (CEREP); assay type: in vitro ADME; conditions: 0.1 μM, 0.1 mg/mL microsomal protein
Method: as §1, §2

MOG-induced EAE mice = assay: MOG-induced EAE in mice, clinical score; assay type: in vivo
Method: 8-10 week old, male C57BL/6 mice were purchased from Janvier Lab (St Berthevin, France) and housed in a specific pathogen free (SPF) animal facility for one week before the start of the studies. Peptide antigen MOG35-55 (Myelin Oligodendrocyte Glycoprotein) ([…], SEQ ID NO:1, Polypeptide group, France) was dissolved in PBS and emulsified with an equal volume of Complete Freund's Adjuvant (CFA) containing 5 mg/mL of mycobacteria and administrated by subcutaneous injection at the dorsal flanks on day 0 at 200 μg/mouse. To ensure induction of reliable EAE, 200 ng of Bordetella pertussis toxin (Sigma) was given via intraperitoneal injection at day 0 and 2 (Cua, Sherlock et al. 2003; Zhang, Gran et al. 2003). Animals were treated with drug beginning 2 days before peptide injection. Animals were randomized into groups for treatment by weight, so that the average weight of each group was similar. The groups were segregated by cage. Compounds according to the invention were suspended in Carboxymethyl Cellulose (CMC) 1% (Sigma) and Tween80 0.1% (Sigma) by sonication and animals were dosed daily by gavage with 10 mL/kg body weight. The daily dose of Cpd. 1 was 30 mg/kg and vidofludimus (reference compound) at 60 mg/kg in protocol 1 to assess IL-17 A and IL-17F secretion from splenocytes ex vivo. In protocol 2, mice were treated with Cpd. 1 at 3 and 10 mg/Kg or T4 compound at 1 and 10 mg/kg daily by gavage to assess the clinical score. Clinical assessment of EAE was performed daily according to the following criteria: 0) no disease, 1) limp tail, 2) weak/partially paralyzed hind legs, 3) completely paralyzed hind legs, 4) complete hind and partial front leg paralysis, and 5) complete paralysis/death. For Cytokine quantifications, mice were euthanized 20 days after EAE induction. Spleen-isolated cells were collected and adjusted to 2×10^6 cells/mL. Cells were cultured in complete RPMI medium (RPMI supplemented with 10% of fetal calf serum, 1% glutamine, and 1% penicillin/streptomycin). Spleen cells were stimulated with MOG (20 μg/mL) (Polypeptide group, France). Cytokine levels were evaluated 48 h later by ELISA (R&D Systems Europe) or HTRF (CisBio, France) in culture supernatants using IL-17A and IL-17-F according to the manufacturer's protocols. The statistical significance was based on Student's t test (p<0.05, unpaired test).

multiple sclerosis model = conditions: administered by injection; cited from earlier work
psoriasis model = conditions: administered by injection; cited from earlier work
[3] = tested on: refractory Crohn diseased patients; conditions: phase IIb; cited from earlier work

Chain of CYP2C19 (P33261 whole entry): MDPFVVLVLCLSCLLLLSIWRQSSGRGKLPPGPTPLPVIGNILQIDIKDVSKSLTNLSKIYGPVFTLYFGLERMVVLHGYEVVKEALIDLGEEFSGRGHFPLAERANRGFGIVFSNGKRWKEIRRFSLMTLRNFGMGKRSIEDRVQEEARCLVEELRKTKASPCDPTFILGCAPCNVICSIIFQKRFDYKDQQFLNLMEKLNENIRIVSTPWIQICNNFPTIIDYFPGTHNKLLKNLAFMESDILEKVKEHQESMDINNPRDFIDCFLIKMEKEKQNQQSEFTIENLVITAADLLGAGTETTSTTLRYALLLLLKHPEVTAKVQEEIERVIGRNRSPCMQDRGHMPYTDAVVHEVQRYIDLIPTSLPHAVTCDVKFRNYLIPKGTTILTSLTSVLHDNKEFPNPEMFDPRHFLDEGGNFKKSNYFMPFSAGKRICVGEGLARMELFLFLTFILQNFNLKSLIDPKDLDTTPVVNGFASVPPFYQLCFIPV
Chain of CYP2D6 (P10635 whole entry): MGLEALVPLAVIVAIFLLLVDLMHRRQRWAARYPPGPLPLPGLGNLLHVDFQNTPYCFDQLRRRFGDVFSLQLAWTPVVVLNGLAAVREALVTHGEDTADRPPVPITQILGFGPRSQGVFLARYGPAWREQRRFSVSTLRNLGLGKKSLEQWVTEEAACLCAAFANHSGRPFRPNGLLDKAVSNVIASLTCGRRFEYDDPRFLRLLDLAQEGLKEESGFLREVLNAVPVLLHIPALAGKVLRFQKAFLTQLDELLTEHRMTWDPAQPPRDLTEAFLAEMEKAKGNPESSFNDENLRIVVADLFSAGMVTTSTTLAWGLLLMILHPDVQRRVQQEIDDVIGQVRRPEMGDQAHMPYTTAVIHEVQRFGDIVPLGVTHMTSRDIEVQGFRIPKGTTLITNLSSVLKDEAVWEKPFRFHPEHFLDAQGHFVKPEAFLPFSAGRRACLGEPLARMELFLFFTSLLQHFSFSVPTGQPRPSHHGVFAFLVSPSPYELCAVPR
Chain of CYP2C9 (P11712 whole entry): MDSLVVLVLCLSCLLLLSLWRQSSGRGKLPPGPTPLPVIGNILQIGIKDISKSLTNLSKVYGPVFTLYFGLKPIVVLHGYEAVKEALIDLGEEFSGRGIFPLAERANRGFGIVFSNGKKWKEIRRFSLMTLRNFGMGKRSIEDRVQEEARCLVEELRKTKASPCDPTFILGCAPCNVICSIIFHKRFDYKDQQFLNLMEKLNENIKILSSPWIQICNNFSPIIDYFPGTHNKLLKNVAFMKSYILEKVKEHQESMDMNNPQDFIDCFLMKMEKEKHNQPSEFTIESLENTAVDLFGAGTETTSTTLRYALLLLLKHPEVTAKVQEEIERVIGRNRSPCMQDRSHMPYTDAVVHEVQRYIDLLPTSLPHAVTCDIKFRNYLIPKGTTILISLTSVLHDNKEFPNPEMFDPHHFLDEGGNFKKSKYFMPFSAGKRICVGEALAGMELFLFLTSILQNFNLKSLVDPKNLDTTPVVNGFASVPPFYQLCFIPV
Chain of CYP3A4 (P08684 whole entry): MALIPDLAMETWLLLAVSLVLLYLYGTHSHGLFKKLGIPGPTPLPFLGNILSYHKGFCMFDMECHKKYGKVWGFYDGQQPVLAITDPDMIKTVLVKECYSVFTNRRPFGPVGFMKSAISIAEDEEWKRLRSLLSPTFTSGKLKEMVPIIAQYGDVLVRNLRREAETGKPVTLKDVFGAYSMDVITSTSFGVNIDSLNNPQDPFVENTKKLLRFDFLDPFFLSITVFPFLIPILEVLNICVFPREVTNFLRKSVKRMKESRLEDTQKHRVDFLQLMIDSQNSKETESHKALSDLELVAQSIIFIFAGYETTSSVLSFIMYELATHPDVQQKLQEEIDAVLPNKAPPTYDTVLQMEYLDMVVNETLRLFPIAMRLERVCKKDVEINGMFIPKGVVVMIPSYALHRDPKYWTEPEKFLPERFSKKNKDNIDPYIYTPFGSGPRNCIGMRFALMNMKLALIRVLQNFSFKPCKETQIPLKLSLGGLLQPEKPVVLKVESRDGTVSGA

- Mouse microsomes (% Cpd. remaining at 60 min) [1]: 0%
- CYP 2C19 (% inhibition of Control) (CYP2C19; human recombinant CYP): 92%
- CYP 2C9 (% inhibition of Control) (CYP2C9; human recombinant CYP): 75%
- CYP 2D6 (% inhibition of Control) (CYP2D6; human recombinant CYP): 19%
- CYP 1A2 (% inhibition of Control) (CYP1A2): −5%
- CYP 3A4 (% inhibition of Control) (CYP3A4; human recombinant CYP): 93%
- Human microsomes (% Cpd. remaining at 60 min) [2]: 0%
Molecule: Cc1ccc(C(NC(=O)Cc2ccc3oc(C(O)c4c(C)noc4C)cc3c2)c2ccccc2)c(C)c1 (single isomer, unassigned) [Cpd. T-3, 2-(2-(hydroxy(3,5-dimethylisoxazol-4-yl)methyl)benzofuran-5-yl)-N-((2,4-dimethylphenyl)(phenyl)methyl)acetamide, reference compound]

- Mouse microsomes (% Cpd. remaining at 60 min) [1]: 0%
- inhibition at 10 µM (CYP2C19; human, recombinant CYP2C19, probe 3-cyano-7-ethoxycoumarin, read-out: CYP 2C19 (% inhibition of Control)): 85%
- inhibition at 10 µM (CYP2C9; human, recombinant CYP2C9, human recombinant CYP, read-out: CYP 2C9 (% inhibition of Control)): 73%
- inhibition at 10 µM (CYP2D6; human, recombinant CYP2D6, human recombinant CYP, read-out: CYP 2D6 (% inhibition of Control)): 31%
- CYP 1A2 (% inhibition of Control) (CYP1A2): −3%
- inhibition at 10 µM (CYP3A4; human, recombinant CYP3A4, probe 7-benzyloxy-4-trifluoromethylcoumarin, read-out: CYP 3A4 (% inhibition of Control)): 82%
- Human microsomes (% Cpd. remaining at 60 min) [2]: 0%
Molecule: Cc1ccc(C(NC(=O)Cc2ccc3oc(C(O)c4c(C)noc4C)cc3c2)c2ccccc2)c(C)c1 (single isomer, unassigned) [Cpd. T-4, 2-(2-(hydroxy(3,5-dimethylisoxazol-4-yl)methyl)benzofuran-5-yl)-N-((2,4-dimethylphenyl)(phenyl)methyl)acetamide, reference compound]
- EAE clinical score (MOG-induced EAE mice; daily by gavage, Cpd. 1 at 3 and 10 mg/Kg, T4 compound at 1 and 10 mg/kg): wasn't effective

Molecule: CC(=O)Nc1nc(C)c(S(=O)(=O)Nc2ccc(C(O)(C(F)(F)F)C(F)(F)F)cc2)s1 [SR1001]
- efficacy in multiple sclerosis model (multiple sclerosis model): efficacious

Molecule: Cc1ccc([C@@H](NC(=O)Cc2ccc3oc([C@@H](O)c4c(C)noc4C)cc3c2)c2ccccc2)c(C)c1 [TMP778]
- efficacy in psoriasis model (psoriasis model): efficacious

Molecule: Cc1ccc(C(NC(=O)Cc2ccc3oc(C(O)c4c(C)noc4C)cc3c2)c2ccccc2)c(C)c1 (centres unmarked) [compound T, 2-(2-(hydroxy(3,5-dimethylisoxazol-4-yl)methyl)benzofuran-5-yl)-N-((2,4-dimethylphenyl)(phenyl)methyl)acetamide, reference compound]
- onset of EAE (MOG-induced EAE mice; administered p/os (orally) for 20 days): ineffective
- efficacy in psoriasis model (psoriasis model): efficacious

Molecule: Ustekinumab: anti-p40 monoclonal antibody that targets Th17 and Th1 through IL-23 and IL-12
- clinical efficacy in refractory Crohn diseased patients [3]: clinical (phase IIb) efficacy
